Where a chain is given by its changes, count along the chain named.
What was measured:
Shp1 = target: T1, Shp1 (Homo sapiens, UniProt P29350); test: Steady-state Trp fluorescence emission spectroscopy of purified Shp1; type: binding
T1 construct: the C-terminal truncated form of human Shp1 cDNA (His-Shp1; amino acids 1–529); made in house; host or cells: E. coli BL21(DE3)
T1 sequence (P29350 1-529 isoform P29350-3): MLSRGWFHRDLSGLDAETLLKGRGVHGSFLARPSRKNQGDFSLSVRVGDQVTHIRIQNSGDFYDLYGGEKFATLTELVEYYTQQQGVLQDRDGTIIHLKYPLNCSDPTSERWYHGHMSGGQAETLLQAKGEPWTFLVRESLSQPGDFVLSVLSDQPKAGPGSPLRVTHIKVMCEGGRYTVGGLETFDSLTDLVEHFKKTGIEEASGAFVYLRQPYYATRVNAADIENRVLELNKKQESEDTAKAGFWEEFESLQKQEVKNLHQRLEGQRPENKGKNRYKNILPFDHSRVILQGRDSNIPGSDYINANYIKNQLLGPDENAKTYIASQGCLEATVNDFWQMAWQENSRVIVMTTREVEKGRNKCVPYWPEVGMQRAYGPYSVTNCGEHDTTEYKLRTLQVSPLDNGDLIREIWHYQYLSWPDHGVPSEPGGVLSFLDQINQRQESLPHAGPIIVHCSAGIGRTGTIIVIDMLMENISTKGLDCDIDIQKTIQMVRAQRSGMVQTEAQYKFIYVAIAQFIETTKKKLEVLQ
Protocol: (§1) The absorption spectra of Shp1 were recorded using a Varian Cary 1 spectrophotometer. Steady-state fluorescence emission measurements were performed with a K2 fluorometer (ISS, Champaign, IL, USA) equipped with a two-cell temperature-controlled sample holder. To selectively excite Trp residues, the excitation wavelength was set at 295 nm with a slit width of 1 nm. To avoid the inner-filter effect, all steady-state fluorescence measurements were performed on Shp1 with optical densities at 295 nm less than 0.1 OD. All measurements were made at 25 °C with the temperature of the samples determined in the cuvette with an accuracy of ±0.2 °C. For each experiment, the Shp1 concentration was fixed at 1.2 μM, while GroPIns4P was varied from 0.0 to 5.0 μM. Thus, a 500 μL solution containing 1.2 μM Shp1 dissolved in PBS pH 7.4 was titrated by successive additions of GroPIns4P (dissolved in PBS buffer, pH 7.4). After each addition, the samples were incubated for 2 min and fluorescence emission spectra were recorded between 310 and 410 nm in triplicate. To exclude the influence of sample dilution, fluorescence titration experiments were performed by adding the same amount of PBS buffer in the total volume (500 μL).

[1] = target: T2, Shp1 S118A/R138E/S140A mutant (Homo sapiens, UniProt P29350, R136E/S116A/S138A); test: Trp fluorescence emission spectroscopy of Shp1 S118A/R138E/S140A mutant; type: binding; conditions: S118A/R138E/S140A vs wild type
T2 construct: a tailless-form of Shp1 (residues 1–529) has previously been used [25] and it is used also in this study; 6xHis (N); made in house; host or cells: E. coli BL21(DE3)
T2 sequence (P29350 1-529 isoform P29350-3 S118A/R138E/S140A): T1 sequence (P29350 1-529 isoform P29350-3) with S118A, R138E, S140A
Protocol: as §1

Shp1 and Src = tested on: T3, Shp1 and Src; test: Acceptor photobleaching FRET of Shp1-CFP and Src-YFP; type: cell-based; conditions: 50 μM for 5 min
T3 construct: expressed in transfected cells; host or cells: NIH3T3
Protocol: Acceptor photobleaching (apFRET) experiments were carried out with Leica SP5 confocal microscope, as follows: for CFP (donor) fluorescence detection, excitation at 458 nm and fluorescence detected at 470–490 nm. For YFP bleaching, a 514 nm argon laser was used. apFRET was measured by increase in CFP fluorescence intensity before (IDA) and after (ID) YFP photobleaching. To ensure reproducibility and reliability of CFP fluorescence measurements in the absence of acceptor (ID), YFP was photobleached to 10% of its initial fluorescence. The FRET efficiency was calculated as E = (ID − IDA)/ ID .

`O=P(O)(O)OC1C(O)C(O)C(OP(=O)(O)OCC(O)CO)C(O)C1O` (centres unmarked) [GroPIns4P, glycerophosphoinositol 4-phosphate] was tested, and the EC50 (Shp1; Shp1 1.2 μM, GroPIns4P 0.0 to 5.0 μM, emission at 332 nm, read-out: apparent EC50 of Trp fluorescence quenching) was ~600 nM, the “maximal quenching of the initial emission” value (Shp1; at 5 μM GroPIns4P) was 18% and the “decrease of binding efficiency of the mutated protein” value [1] was “up to 50%”. For the same compound, the “FRET efficiency in hot spots” value (Shp1 and Src; lamellar regions) was “over 20%” and the “average FRET efficiency” value (Shp1 and Src; over the cells) was 9%.
